Assay results reported in patent US4760136A, “Chartreusin derivatives and salts thereof” (Ishihara Sangyo Kaisha, Ltd., priority 1984, dated 1988).
Counter-ions that a name gives are not always drawn.

Key:
[1] = test system: P-388 leukemia cells; test: Antitumor activity: P-388 leukemia cells inoculated intraperitoneally, drug administered intravenously, BDF1 mice; type: in vivo; conditions: for response vs control in vivo at 40 mg/kg / T/C (%) of MST: dose c: 40 mg/kg × 3, i.v. on days 1, 5 and 9; for response vs control in vivo at 80 mg/kg: dose f: 80 mg/kg × 3, i.v. on days 1, 5 and 9; for response vs control in vivo at 20 mg/kg: dose b: 20 mg/kg × 3, i.v. on days 1, 5 and 9
Summary of the method: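 Drug dosing was intravenous on the first, fifth and ninth days after intraperitoneal inoculation of P-388 leukemia cells (1×10^6 per mouse) into BDF1 mice. Vehicles were physiological saline alone, or saline with small amounts of sodium carboxymethyl cellulose or Tween-80.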

[2] = test system: ddY mice; test: Acute toxicity, intravenous (once), ddY mice; type: in vivo; conditions: formulated per Preparation Example
Description: (§1) In Table 7 are shown acute toxicity values (LD50, mg/kg) in ddY mice in the case of intravenously administering (once) each of the compounds of this invention in the form of preparations shown in the Preparation Examples shown in Table 7.

[3] = test system: L-1210 leukemia; conditions: i.p. inoculation, i.p. administration; cited from earlier work
[4] = test system: cancer; conditions: different sites; cited from earlier work
[5] = test system: P-388 leukemia; conditions: i.p. inoculation, i.p. administration; cited from earlier work
[6] = test system: B-16 melanoma; conditions: i.p. inoculation, i.p. administration; cited from earlier work
[7] = Acute toxicity, intravenous (once), ddY mice; type: in vivo; conditions: mouse, in vivo, iv, formulated per Preparation Example
Description: as §1

[8] = Mus musculus, P388, iv, BDF1 mice, P-388 i.p., read-out: T/C (%) of MST

COC1C(O)C(C)OC(OC2C(Oc3cccc4c(OC(=O)CCCCCNC(=O)OCc5ccccc5)c5c(=O)oc6ccc(C)c7c(=O)oc(c34)c5c67)OC(C)C3OC(c4ccccc4)OC32)C1O (centres unmarked) [compound 110] showed a response vs control in vivo at 40 mg/kg [1, 8] of 154% and an LD50 [2] of no less than 60 mg/kg.

For COC1C(O)C(C)OC(OC2C(Oc3cccc4c(OC(=O)C5CCCCC5NC(=O)C(F)(F)F)c5c(=O)oc6ccc(C)c7c(=O)oc(c34)c5c67)OC(C)C3OC(c4cccc(F)c4)OC32)C1O (single isomer, unassigned) [Compound No. 117, 6-O-(N-Trifluoroacetyl-2-Amino-Cyclohexanecarbonyl)-3',4'-O-(m-Fluorobenzylidene)-Chartreusin], the response vs control in vivo at 40 mg/kg [1, 8] was 135% and the LD50 [2] was no less than 30 mg/kg.

For COC1C(O)C(C)OC(OC2C(Oc3cccc4c(OC(=O)C(C)CNC(=O)C(F)(F)F)c5c(=O)oc6ccc(C)c7c(=O)oc(c34)c5c67)OC(C)C3OC(c4cccc(F)c4)OC32)C1O (stereo not drawn) [Compound No. 37, 6-O-(N-trifluoroacetyl-β-amino-isobutyryl)-3',4'-O-(m-fluorobenzylidene)-chartreusin], the response vs control in vivo at 10 mg/kg ([1]; Mus musculus, P388, iv, dose a: 10 mg/kg × 3, i.v. on days 1, 5 and 9, BDF1 mice, P-388 i.p., read-out: T/C (%) of MST) was 146% and the LD50 [2] was no less than 30 mg/kg.

For COC1C(O)C(C)OC(OC2C(Oc3cccc4c(OC(=O)CCNC(C)=O)c5c(=O)oc6ccc(C)c7c(=O)oc(c34)c5c67)OC(C)C3OC(c4ccccc4)OC32)C1O (centres unmarked) [Compound No. 29], the response vs control in vivo at 40 mg/kg [1, 8] was 173%, the response vs control in vivo at 80 mg/kg [1, 8] was 221% and the LD50 [2] was no less than 80 mg/kg.

Work on COC1C(O)C(C)OC(OC2C(Oc3cccc4c(OC(=O)CCNC=O)c5c(=O)oc6ccc(C)c7c(=O)oc(c34)c5c67)OC(C)C3OC(c4ccsc4)OC32)C1O (centres unmarked) [compound 89] yielded a response vs control in vivo at 80 mg/kg [1, 8] of 173% and an LD50 [2] of no less than 80 mg/kg.

Work on COC1C(O)C(C)OC(OC2C(Oc3cccc4c(OC(=O)CN(C)C(=O)C(F)(F)F)c5c(=O)oc6ccc(C)c7c(=O)oc(c34)c5c67)OC(C)C3OC(c4ccccc4)OC32)C1O (centres unmarked) [compound 67] yielded a response vs control in vivo at 80 mg/kg [1, 8] of 188% and an LD50 [2] of no less than 60 mg/kg.

In the case of COC1C(O)C(C)OC(OC2C(Oc3cccc4c(OC(=O)CCN)c5c(=O)oc6ccc(C)c7c(=O)oc(c34)c5c67)OC(C)C3OC(c4ccccc4)OC32)C1O (stereo not drawn) [compound 80, 6-O-(β-alanyl)-3',4'-O-benzylidene-chartreusin hydrochloride], the response vs control in vivo at 80 mg/kg [1, 8] is reported as 184%, the “T/C (%) of MST” value ([1]; BDF1 mice, P-388 i.p., hydrochloride) is reported as 139% and the LD50 ([2]; hydrochloride) is reported as no less than 80 mg/kg.

In the case of COC1C(O)C(C)OC(OC2C(Oc3cccc4c(OC(=O)CCCNC(=O)C(F)(F)F)c5c(=O)oc6ccc(C)c7c(=O)oc(c34)c5c67)OC(C)C3OC(c4ccc(F)cc4)OC32)C1O (centres unmarked) [Compound No. 57], the response vs control in vivo at 40 mg/kg [1, 8] is reported as 162%, the response vs control in vivo at 80 mg/kg [1, 8] is reported as 208% and the LD50 [2] is reported as no less than 80 mg/kg.

COC1C(O)C(C)OC(OC2C(Oc3cccc4c(OC(=O)CCNC(=O)C(F)(F)F)c5c(=O)oc6ccc(C)c7c(=O)oc(c34)c5c67)OC(C)C3OC(c4ccccc4)OC32)C1O (stereo not drawn) [Compound No. 28, 6-O-(N-Trifluoroacetyl-β-Alanyl)-3',4'-O-Benzylidene-Chartreusin] showed a response vs control in vivo at 80 mg/kg [1, 8] of 193%, a response vs control in vivo at 120 mg/kg ([1]; Mus musculus, P388, iv, dose h: 120 mg/kg × 3, i.v. on days 1, 5 and 9, BDF1 mice, P-388 i.p., read-out: T/C (%) of MST) of 227% and an LD50 [2] of no less than 120 mg/kg.

C=CCCC(=O)Oc1c2cccc(O[C@@H]3O[C@H](C)[C@@H]4OC(c5ccccc5)O[C@@H]4[C@H]3O[C@H]3O[C@H](C)[C@H](O)[C@H](OC)[C@H]3O)c2c2oc(=O)c3c(C)ccc4oc(=O)c1c2c43 (some centres unmarked) [compound 213] gave a response vs control in vivo at 80 mg/kg [1, 8] of 160% and an LD50 [2] of no less than 80 mg/kg.

In the case of COC1C(O)C(C)OC(OC2C(Oc3cccc4c(OC(=O)CCNC=O)c5c(=O)oc6ccc(C)c7c(=O)oc(c34)c5c67)OC(C)C3OC(c4ccccc4)OC32)C1O (centres unmarked) [Compound No. 40], the response vs control in vivo at 80 mg/kg [1, 8] is reported as 205% and the LD50 [2] is reported as no less than 100 mg/kg.

For COC1C(O)C(C)OC(OC2C(Oc3cccc4c(OC(=O)CCNC(=O)C(F)(F)F)c5c(=O)oc6ccc(C)c7c(=O)oc(c34)c5c67)OC(C)C3OC(c4ccccc4)OC32)C1O (centres unmarked) [Compound No. 41], the “T/C (%) of MST” value ([1]; BDF1 mice, P-388 i.p.) was 157% and the LD50 [2] was no less than 100 mg/kg.

With COC1C(O)C(C)OC(OC2C(Oc3cccc4c(OC(=O)CCN)c5c(=O)oc6ccc(C)c7c(=O)oc(c34)c5c67)OC(C)C3OC(c4ccccc4)OC32)C1O (centres unmarked) [Compound No. 17] the response vs control in vivo at 20 mg/kg [1, 8] was 206%, the “T/C (%) of MST” value ([1]; BDF1 mice, P-388 i.p.) was 241% and the LD50 [2] was no less than 40 mg/kg.

With COC1C(O)C(C)OC(OC2C(Oc3cccc4c(OC(=O)C5CCCCC5NC(=O)C(F)(F)F)c5c(=O)oc6ccc(C)c7c(=O)oc(c34)c5c67)OC(C)C3OC(c4ccccc4)OC32)C1O (single isomer, unassigned) [Compound No. 26, 6-O-(N-Trifluoroacetyl-2-Amino-Cyclohexanecarbonyl)-3',4'-O-Benzylidene-Chartreusin] the response vs control in vivo at 20 mg/kg [1, 8] was 195%, the “T/C (%) of MST” value ([1]; BDF1 mice, P-388 i.p.) was 220% and the LD50 [2] was no less than 40 mg/kg.

Compound COC1C(O)C(C)OC(OC2C(Oc3cccc4c(OC(=O)C5CC5)c5c(=O)oc6ccc(C)c7c(=O)oc(c34)c5c67)OC(C)C3OC(c4ccccc4)OC32)C1O (centres unmarked) [compound 230] has a response vs control in vivo at 80 mg/kg [1, 8] of 144% and an LD50 [2] of no less than 80 mg/kg.

COC1C(O)C(C)OC(OC2C(Oc3cccc4c(OC(=O)CC(C)C)c5c(=O)oc6ccc(C)c7c(=O)oc(c34)c5c67)OC(C)C3OC(c4ccccc4)OC32)C1O (centres unmarked) [compound 227] showed a response vs control in vivo at 80 mg/kg [1, 8] of 143% and an LD50 [2] of no less than 80 mg/kg.

For COC1C(O)C(C)OC(OC2C(Oc3cccc4c(OC(=O)CC(C)NC(=O)C(F)(F)F)c5c(=O)oc6ccc(C)c7c(=O)oc(c34)c5c67)OC(C)C3OC(c4ccccc4)OC32)C1O (centres unmarked) [compound 66], the response vs control in vivo at 80 mg/kg [1, 8] was 171% and the LD50 [2] was no less than 60 mg/kg.

COC1C(O)C(C)OC(OC2C(Oc3cccc4c(OC(=O)C(C)CNC(=O)C(F)(F)F)c5c(=O)oc6ccc(C)c7c(=O)oc(c34)c5c67)OC(C)C3OC(c4cccc(F)c4)OC32)C1O (centres unmarked) [compound 68] showed a response vs control in vivo at 40 mg/kg [1, 8] of 148%, a response vs control in vivo at 80 mg/kg [1, 8] of 210% and an LD50 [2] of no less than 80 mg/kg.

COC1C(O)C(C)OC(OC2C(Oc3cccc4c(OC(=O)CCNC(=O)c5ccccc5)c5c(=O)oc6ccc(C)c7c(=O)oc(c34)c5c67)OC(C)C3OC(c4ccccc4)OC32)C1O (centres unmarked) [compound 65] gave a response vs control in vivo at 80 mg/kg [1, 8] of 175% and an LD50 [2] of no less than 60 mg/kg.

For CCCC(=O)Oc1c2cccc(OC3OC(C)C4OC(c5ccccc5)OC4C3OC3OC(C)C(O)C(OC)C3O)c2c2oc(=O)c3c(C)ccc4oc(=O)c1c2c43 (centres unmarked) [compound 212, 6-O-(n-butyryl)-3',4'-O-benzylidene-chartreusin], the response vs control in vivo at 80 mg/kg [1, 8] was 153% and the LD50 [2] was no less than 80 mg/kg.

For CO[C@H]1[C@@H](O)[C@@H](C)O[C@H](O[C@H]2[C@H](Oc3cccc4c(O)c5c(=O)oc6ccc(C)c7c(=O)oc(c34)c5c67)O[C@H](C)[C@H](O)[C@@H]2O)[C@@H]1O [chartreusin], the “antitumorous activity against L-1210 leukemia” value [3] is listed as “effective”, the “antitumorous activity when site of cancer inoculation and site of administration were different” value [4] is listed as “not effective at all” and the “T/C (%)” value ([1]; 50 mg/kg/day x 3, suspension in 0.2M Na2HPO4 / N,N-dimethylacetamide (4:1), comparison) is listed as 105%. The “antitumorous activity against P-388 leukemia” value [5] was “effective” and the “antitumorous activity against B-16 melanoma” value [6] was “effective”.

Work on COC1C(O)C(C)OC(OC2C(Oc3cccc4c(OC(=O)CCNC(=O)c5ccccc5)c5c(=O)oc6ccc(C)c7c(=O)oc(c34)c5c67)OC(C)C3OC(c4ccc(Br)cc4)OC32)C1O (centres unmarked) [compound 124] yielded a response vs control in vivo at 80 mg/kg [1, 8] of 151% and an LD50 [2] of no less than 80 mg/kg.

For COC1C(O)C(C)OC(OC2C(Oc3cccc4c(OC(=O)C(NC(=O)CNC(=O)CNC(=O)OCc5ccccc5)C(C)C)c5c(=O)oc6ccc(C)c7c(=O)oc(c34)c5c67)OC(C)C3OC(c4ccccc4)OC32)C1O (centres unmarked) [compound 115], the response vs control in vivo at 20 mg/kg [1, 8] was 135% and the LD50 [7] was no less than 40 mg/kg.
